# Laboratory results: publication PMC12380353, “MK-8527 is a novel inhibitor of HIV-1 reverse transcriptase translocation with potential for extended-duration dosing” (PLOS Biology, 2025)
# Several values for one entry are separate records, joined by “and”; a condition that tells them apart may be missing. Equal entries are not always repeated. Where two headings read alike, the source gives them in different places.
# Assays:
# [1] = test system: panel of unrelated viruses; conditions: all other viruses of the panel, up to highest concentration tested, 50 µM
# [2] = PK in rats; format: in vivo; conditions: male, Wistar Hannover, plasma, rat
# Experimental: All animal procedures were conducted according to the highest ethical standards using procedures approved by the Institutional Animal Care and Use Committee of Merck & Co., Rahway, NJ, USA (APS 2016-600774-FEB). Fasted male Wistar Hannover rats (n = 3 in each arm) weighing approximately 325 g were used for the PK studies. All blood samples were collected in EDTA-coated tubes at the time points specified below. For the IV arm of the study, a cannula was implanted in the jugular vein for dose administration and blood sampling. […] For the oral arm of the study, a solution of MK-8527 was administered by oral gavage at 2 mg/kg in 0.5% methylcellulose in water to fasted rats. […] The concentrations of MK-8527 in plasma were determined by LC–MS/MS assays following a protein precipitation step. Aliquots (50 µL) of plasma were precipitated by addition of 150 µL of acetonitrile solution-containing internal standard (IS), followed by centrifugation at 3,000 rpm for 10 min. A 75-µL aliquot of the supernatant was transferred into a 96-well plate, and 5 µL of each sample was used for analysis. LC–MS/MS analysis was performed on a Transcend LC system with HTS PAL CTC autosampler (Thermo Fisher Scientific, Waltham, MA, USA) interfaced to an API-5000 mass spectrometer using the turbo ion spray interface (Sciex, Framingham, MA, USA). Separation of MK-8527 was achieved on an Xselect HSS XP T3 column (50 × 2.1 mm, 2.5 µm; […] The chromatography for plasma samples was run using gradient elution as follows: the column was equilibrated with 100% A. […] The total run time was 4.15 min. Quantification was done by monitoring the transition of m/z 309 to m/z 169 or 133 for MK-8527. The method was linear across a concentration range of 2–10,000 ng/mL in plasma.
# [3] = CellTiter-Glo (CTG) cytotoxicity in MT4-GFP cells; conditions: human
# [4] = test system: HIV-1 subtypes; conditions: for Fold-Change in IC50 vs CNDO control virus: listed as MK-8527
# Experimental: Compounds were evaluated for antiviral activity against a panel of clinical isolates representing multiple HIV-1 subtypes at Monogram Biosciences (South San Francisco, CA, USA). The isolates were selected based on an absence of resistance-associated mutations in RT and each was constructed as a pooled resistance test vector designed to preserve the quasispecies present in the initial clinical isolate.
# [5] = test system: HIV-1IIIB; experiment: Cytoprotection assay in CEM-SS cells, HIV-1; format: cell-based; conditions: Human immunodeficiency virus 1, 144 h, 6 days, read-out: Antiviral potency as IC50, HIV-1 – CEM-SS cells
# Experimental: The antiviral activity of MK-8527 against HIV-1 and HIV-2 was determined in a cytoprotection assay in CEM-SS cells at ImQuest BioSciences (Fredrick, MD, USA). Briefly, CEM-SS cells (National Institute of Health AIDS Research and Reference Reagent Program) were passaged in RPMI 1640 supplemented with 10% heat-inactivated FBS, 2 mM L-glutamine, 100 U/mL penicillin and 100 µg/mL streptomycin prior to use in the antiviral assay. On the day preceding the assay, the cells were split 1:2 to ensure they were in an exponential growth phase at the time of infection. The cells were resuspended at 2.5 × 10^3 cells per well in cell culture medium and added to the drug-containing microtiter plates at 50 µL per well. MK-8527 was tested in triplicate for each experiment, with 12 test concentrations added at 100 µL per well.
# Lymphocyte-tropic virus strains HIV-1IIIB or HIV-2ROD (NIH AIDS Research and Reference Reagent Program) were diluted into tissue culture medium such that the amount of virus added to each well in a volume of […] corresponded to the amount determined to yield 85% to 95% cell killing in the untreated virus control wells at 6–7 days. Virus was added immediately after cells were added to the 96-well microtiter plates.
# The IC50 for MK-8527 antiviral activity was determined using 4-parameter curve fit calculations.
compound,measurement,setting,value
"C#C[C@]1(CO)O[C@@H](n2ccc3c(N)nc(Cl)nc32)C[C@@H]1O [Compound 12, (2R,3S,5R)-5-(4-amino-2-chloro-7H-pyrrolo[2,3-d]pyrimidin-7-yl)-2-ethynyl-2-(hydroxymethyl)tetrahydrofuran-3-ol]",Antiviral activity or cytotoxicity,[1],did not display antiviral activity or cytotoxicity
same,clearance,"[2]; IV 1.0 mg/kg, read-out: CLp",18.1 ± 3.3 mL/min/kg
same,Vd,"[2]; IV 1.0 mg/kg, read-out: Vdss",2 ± 0.3 L/kg
same,bioavailability,[2]; oral 2 mg/kg,57%
same,half-life,"[2]; IV 1.0 mg/kg, read-out: t½ (converted)",138 ± 78 min
same,CC50,[3],> 42 µM
same,Geometric Mean fold-change,[4]; WT Subtype A,1.0
same,Geometric Mean fold-change,[4]; WT Subtype A1,0.9
same,Fold-Change in IC50 vs CNDO control virus,[4]; WT Subtype A1 clinical isolates,0.96 and 0.93 and 0.73
same,Geometric Mean fold-change,[4]; WT Subtype AE,0.6
same,Geometric Mean fold-change,[4]; WT Subtype AG,1.0
same,Geometric Mean fold-change,[4]; WT Subtype B,0.9
same,Geometric Mean fold-change,[4]; WT Subtype BF,0.8
same,Geometric Mean fold-change,[4]; WT Subtype C,1.0
same,Geometric Mean fold-change,[4]; WT Subtype D,0.7
same,Geometric Mean fold-change,[4]; WT Subtype F1,0.8
same,Geometric Mean fold-change,[4]; WT Subtype G,0.752
same,Geometric Mean fold-change,[4]; WT Subtype H,0.55
same,Fold-Change in IC50 vs CNDO control virus,[4]; WT Subtype H clinical isolates,0.72 and 0.42
same,IC50,[5],0.14 nM
